Data reported in ChEMBL document CHEMBL1201862, “PubChem BioAssay data set” (2004).
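Five compound concentrations were applied to cells in 96-well plates for 48 hours; endpoints were derived by simple linear interpolation of the resulting dose-response curve. GI50 marks 50% less growth.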 The source made the active and inactive calls. No stated cut-off is given here; in the data, active = GI50 up to about 1.1 µM and inactive = higher.

How the values were obtained:
Experiment in all cases: NCI anticancer screen, dose series, 48 h
[1] = system: HCT-116
[2] = system: M19-MEL
[3] = system: A498
[4] = system: OVCAR-3
[5] = system: SW-620
[6] = system: Malme-3M
[7] = system: SK-MEL-5
[8] = system: RXF 393
[9] = system: A549
[10] = system: M14
[11] = system: UO-31
[12] = system: KM-20L2
[13] = system: XF498
[14] = system: U-251
[15] = system: CAKI-1
[16] = system: SNB-75
[17] = system: DLD-1
[18] = system: CCRF-CEM
[19] = system: SK-OV-3
[20] = system: HL-60
[21] = system: 786-0
[22] = system: DMS-114
[23] = system: DMS-273
[24] = system: NCI-H460
[25] = system: NCI-H23
[26] = system: NCI-H522
[27] = system: SNB-19
[28] = system: COLO 205
[29] = system: LXFL 529
[30] = system: SN12C
[31] = system: OVCAR-5
[32] = system: ACHN
[33] = system: SNB-78
[34] = system: SK-MEL-28
[35] = system: SF-295
[36] = system: SF-268
[37] = system: HOP-18
[38] = system: OVCAR-4
[39] = system: OVCAR-8
[40] = system: IGROV-1
[41] = system: MOLT-4
[42] = system: SK-MEL-2
[43] = system: NCI-H226
[44] = system: SR
[45] = system: UACC-257
[46] = system: HOP-62
[47] = system: KM12
[48] = system: HOP-92
[49] = system: K562
[50] = system: SF-539
[51] = system: HT-29
[52] = system: EKVX
[53] = system: HCT-15
[54] = system: LOX IMVI
[55] = system: TK-10
[56] = system: UACC-62
[57] = system: HCC 2998
[58] = system: RPMI-8226

For `N#CC(/C(CCCC(=O)Nc1cccc([N+](=O)[O-])c1)=N\NC(=O)c1c(O)ccc2ccccc12)c1nc2ccccc2s1` (centres undefined), the GI50 [1] was 8.43 µM (inactive), the GI50 [2] was 16.4 µM (inactive) and the GI50 [3] was 35.1 µM (inactive). For the same compound, the GI50 [4] was 16.3 µM (inactive), the GI50 [5] was 44.8 µM (inactive) and the GI50 [6] was 35 µM (inactive). The GI50 [7] was 28.2 µM (inactive), the GI50 [8] was 33.4 µM (inactive) and the GI50 [9] was 10.8 µM (inactive). For the same compound, the GI50 [10] was 26.9 µM (inactive), the GI50 [11] was 14.3 µM (inactive) and the GI50 [12] was 27 µM (inactive). The GI50 [13] was 21.8 µM (inactive), the GI50 [14] was 16.3 µM (inactive) and the GI50 [15] was 36.7 µM (inactive). For the same compound, the GI50 [16] was 10.7 µM (inactive), the GI50 [17] was 45.5 µM (inactive) and the GI50 [18] was 5.35 µM (inactive). For the same compound, the GI50 [19] was 25.5 µM (inactive), the GI50 [20] was 3.16 µM (inactive) and the GI50 [21] was 34.6 µM (inactive). The GI50 [22] was 12.6 µM (inactive), the GI50 [23] was 8.63 µM (inactive) and the GI50 [24] was 13.7 µM (inactive). For the same compound, the GI50 [25] was 37.5 µM (inactive), the GI50 [26] was 25.8 µM (inactive) and the GI50 [27] was 36.8 µM (inactive). The GI50 [28] was 30.1 µM (inactive), the GI50 [29] was 30.8 µM (inactive) and the GI50 [30] was 25.6 µM (inactive). The GI50 [31] was 37.7 µM (inactive), the GI50 [32] was 20.7 µM (inactive) and the GI50 [33] was 37.4 µM (inactive). For the same compound, the GI50 [34] was 21.5 µM (inactive), the GI50 [35] was 28.6 µM (inactive) and the GI50 [36] was 13.1 µM (inactive). For the same compound, the GI50 [37] was 23.1 µM (inactive), the GI50 [38] was 24.3 µM (inactive) and the GI50 [39] was 18.5 µM (inactive). For the same compound, the GI50 [40] was 13.3 µM (inactive), the GI50 [41] was 11.7 µM (inactive) and the GI50 [42] was 27.1 µM (inactive). The GI50 [43] was 21.9 µM (inactive), the GI50 [44] was 17.5 µM (inactive) and the GI50 [45] was 35.5 µM (inactive). For the same compound, the GI50 [46] was 27.8 µM (inactive), the GI50 [47] was 28.8 µM (inactive) and the GI50 [48] was 53.1 µM (inactive). The GI50 [49] was 7.89 µM (inactive), the GI50 [50] was 15.3 µM (inactive) and the GI50 [51] was 37 µM (inactive). For the same compound, the GI50 [52] was 35.4 µM (inactive).
`NC(N)=NN/C(=C1/N=c2ccc([N+](=O)[O-])cc2=NC1=O)C(O)c1ccco1` (centres undefined) was tested, and the GI50 [1] was > 100 µM (inactive), the GI50 [2] was > 100 µM (inactive) and the GI50 [3] was > 100 µM (inactive). The GI50 [5] was > 100 µM (inactive), the GI50 [6] was > 100 µM (inactive) and the GI50 [7] was > 100 µM (inactive). For the same compound, the GI50 [53] was greater than 100 µM, the GI50 [8] was > 100 µM (inactive) and the GI50 [54] was > 100 µM (inactive). For the same compound, the GI50 [9] was > 100 µM (inactive), the GI50 [10] was > 100 µM (inactive) and the GI50 [11] was 64.7 µM (inactive). For the same compound, the GI50 [12] was > 100 µM (inactive), the GI50 [13] was > 100 µM (inactive) and the GI50 [14] was > 100 µM (inactive). The GI50 [15] was > 100 µM (inactive), the GI50 [55] was > 100 µM (inactive) and the GI50 [16] was > 100 µM (inactive). For the same compound, the GI50 [17] was > 100 µM (inactive), the GI50 [18] was 67.1 µM (inactive) and the GI50 [19] was > 100 µM (inactive). The GI50 [20] was 35.9 µM (inactive), the GI50 [21] was > 100 µM (inactive) and the GI50 [56] was > 100 µM (inactive). For the same compound, the GI50 [22] was 27.5 µM (inactive), the GI50 [23] was > 100 µM (inactive) and the GI50 [24] was > 100 µM (inactive). For the same compound, the GI50 [25] was > 100 µM (inactive), the GI50 [26] was 32.8 µM (inactive) and the GI50 [27] was > 100 µM (inactive). The GI50 [28] was > 100 µM (inactive), the GI50 [29] was 92.7 µM (inactive) and the GI50 [30] was > 100 µM (inactive). The GI50 [31] was > 100 µM (inactive), the GI50 [32] was > 100 µM (inactive) and the GI50 [33] was > 100 µM (inactive). The GI50 [34] was > 100 µM (inactive), the GI50 [35] was > 100 µM (inactive) and the GI50 [36] was > 100 µM (inactive). The GI50 [37] was > 100 µM (inactive), the GI50 [38] was > 100 µM (inactive) and the GI50 [39] was > 100 µM (inactive). For the same compound, the GI50 [40] was > 100 µM (inactive), the GI50 [41] was > 100 µM (inactive) and the GI50 [57] was > 100 µM (inactive). For the same compound, the GI50 [42] was > 100 µM (inactive), the GI50 [43] was > 100 µM (inactive) and the GI50 [44] was > 100 µM (inactive). For the same compound, the GI50 [45] was > 100 µM (inactive), the GI50 [58] was 43.7 µM (inactive) and the GI50 [46] was > 100 µM (inactive). For the same compound, the GI50 [47] was > 100 µM (inactive), the GI50 [48] was > 100 µM (inactive) and the GI50 [49] was 54.3 µM (inactive). The GI50 [50] was > 100 µM (inactive), the GI50 [51] was > 100 µM (inactive) and the GI50 [52] was > 100 µM (inactive).
